{"source": "patent US20230042653A1", "about": "“COMBINATIONS” (Recurium IP Holdings, LLC, priority 2019, published 2023)", "test_system": "MCF-7 xenograft tumor", "assay": "MCF-7 xenograft tumor model, combination study", "type": "in vivo", "conditions": "single agent, FIG. 3", "data": [{"smiles": "C=CCn1c(=O)c2cnc(Nc3ccc(N4CCN(C)CC4)cc3)nc2n1-c1cccc(C(C)(C)O)n1", "note": "[Compound 1]", "values": [{"measurement": "TGI", "setting": "dose not printed for the single agent", "result": 122.8, "unit": "%"}]}, {"smiles": "C[C@@H]1Cc2c([nH]c3ccccc23)[C@@H](c2c(F)cc(/C=C/C(=O)O)cc2F)N1C12CC(C1)C2", "note": "[Compound (A)]", "values": [{"measurement": "TGI", "setting": "10 mg/kg", "result": 128.3, "unit": "%"}]}]}
